Measurements as given in article PMC9916883, “Betaine- and L-Carnitine-Based Ionic Liquids as Solubilising and Stabilising Agents for the Formulation of Antimicrobial Eye Drops Containing Diacerein” (International Journal of Molecular Sciences, 2023).
Converted amounts (≈) assume the structure as drawn. Read-outs that look alike come from different tables or passages of the source.

Key:
[1] = system: BALB/3T3 clone A31 fibroblast cells; assay: Cytotoxicity screening (WST-1); assay type: cell-based, murine; details: Mus musculus, 4 h incubation, read-out: IC50 of cell viability
Procedure: BALB/3T3 clone A31 fibroblast cells were grown in Dulbecco’s Modified Eagle Medium (DMEM), supplemented with 2 mM L-glutamine, 1% penicillin/streptomycin, and 10% bovine calf serum. Cells were grown in a CO2 incubator (Heracell 150i series) at 37 °C and 5% CO2, with cells sub-cultured at 80–90% confluency. The cell monolayers were rinsed with PBS and treated with trypsin–EDTA to detach the cells before their resuspension in fresh media. A subconfluent monolayer of BALB/3T3 clone A31 fibroblast cells was trypsinised, centrifuged at 1000 rpm for 5 min, resuspended in growth medium, and counted.
A cytotoxicity screening was carried out for both ILs (range […]), as well as DIA and Rhe (0.5–200 mg/mL). Briefly, BALB/3T3 clone A31 fibroblast cells were seeded in each well of 96-well plates at a seeding density of 6 × 10^3 cells/well for 24 h, until 60–70% confluence was reached. After 24 h, the medium was then removed from each well and replaced with DMEM containing the samples.
After 4 h of incubation, the media were removed, replaced with fresh medium containing 10% WST-1 reagent solution, and maintained for 4 h at 37° C with 5% CO2. Afterwards, formazan dye absorbance was quantified at 450 nm with the reference wavelength at 655 nm by using a multilabel reader (BioTek 800/TS, Thermo Scientific).

[2] = Stabilisation of DIA against hydrolysis to Rhe under simulated physiological conditions; assay type: physicochemical; details: pH 7.4, 37 °C; for degradation of DIA / DIA degraded: 6 h
Procedure: The stabilising effect of Bet6 and Carn6 on DIA’s hydrolysis was investigated under simulated in vitro conditions. […] After equilibrating for 30 min at 25 °C, the samples were transferred to a thermostatic shaking bath at 37 °C, and their pH was rapidly brought to 7.4 by adding 10 N NaOH. At defined time intervals (30 min, 1 h, 2 h, 3 h, 4 h, 5 h, and 6 h), a 500 µL sampling was performed, and the hydrolysis was blocked by adding 2 µL of 37% HCl, bringing the pH back to 5. The amount of Rhe formed over time was evaluated spectrophotometrically. Degradation of DIA was expressed in mol% of Rhe formation. The stabilising capability was compared to that obtained with HP-β-CD by applying the protocol to DIA/HP-β-CD solutions in CB, with molar ratios of 1:3, 1:5, and 1:10.

P. aeruginosa ATCC 27853 [3] = assay: MIC determination (microdilution); assay type: cell-based, Pseudomonas aeruginosa
Procedure: (§1) A clinical isolate of S. aureus (W4) and the reference strain of P. aeruginosa ATCC 27853 were used in the study. For the preparation of stock cultures, bacterial strains were grown in Luria–Bertani broth (LB, Oxoid, Basingstoke, Hampshire, UK) until the late-log phase, subdivided into aliquots, and kept frozen at −80 °C until use. Identification and susceptibility testing of the S. aureus W4 strain were performed using MALDI-TOF (Bruker Daltonics, Bremen, Germany) and the BD Phoenix susceptibility testing system (BD, Milan, Italy), respectively.
(§2) The susceptibility of the bacterial strains to each of the tested compounds was assessed in terms of MIC values according to the standard microdilution method (Clinical and Laboratory Standards Institute–CLSI, 2018), with some modifications. Briefly, the bacteria were grown in LB broth until the exponential growth phase and then diluted in the same medium to reach a final density of 5 × 10^6 CFU/mL. A volume of 10 μL of the bacterial suspensions was added to 90 μL of LB in a 96-well plate in the absence (viability control) or presence of the test compound at different concentrations.

[4] = Phase solubility study (apparent solubility of DIA and Rhe with ILs or HP-β-CD); assay type: physicochemical; details: 25 °C, thermodynamic from solid, read-out: saturation solubility
Procedure: The increase in the apparent solubility of both DIA and Rhe in the presence of the ILs was evaluated. Briefly, aqueous solutions of the ILs were prepared in the range of 0–200 mg/mL, and an excess of either DIA or Rhe was added to each vial. The samples were then incubated for 30 min at 25°C, and the undissolved drug was removed by centrifugation at […] for 15 min (Hettich Mikro 120 centrifuge). […] The drug concentration was measured by UV–Vis analysis. The DIA phase solubility study was also compared to the phase solubility study of DIA in the presence of HP-β-CD as a reference solubility/stability-enhancing excipient. […] The complexation K was calculated through Higuchi and Connors’ method, as previously reported.
The size distribution and zeta potential values of the ILs’ aggregates in aqueous solutions were evaluated by using a Zetasizer Nano ZS (Malvern) at 25 °C. The samples were prepared by adding an excess of either DIA or Rhe (5 mg/mL) to the aqueous IL solutions, incubating them for 30 min at 25 °C, and finally removing the excess drugs by centrifugation. […] In contrast, for PB solutions, the solutions were prepared in water, and […] of 100 mM pH 7 phosphate buffer was added per 1 mL of aqueous solution, directly in the cuvette, before the dynamic light scattering (DLS) analysis started. The concentrations of the solubilised drug were determined by UV–Vis analysis.

P. aeruginosa ATCC 27853 [5] = assay: Killing assay; assay type: cell-based, Pseudomonas aeruginosa; details: 3 h incubation in 5% TSB; DIA 0.34 M, ILs 0.27 M
Procedure: To this end, the bacterial strains were grown in TSB until the exponential phase, and approximately 5 × 10^4 CFU/mL-contained in 10 μL-was added to 5 μL of TSB, 35 μL of water, and 50 μL of one of the following solutions corresponding to the eye drop compositions tested in vivo: Bet6 or Carn6 with 0.27 M or 0.34 M DIA, plain DIA (0.34 M) solution, or plain Bet6/plain Carn6, both at 0.27 M. All solutions were prepared in CB. The samples were incubated at 37 °C with shaking for 3 h. A sample containing 0.6% DMSO (corresponding to the highest concentration of DMSO tested) was used as a control. Following incubation, the samples were diluted 10-fold in LB and plated on tryptone soy agar (TSA, Oxoid) to determine the number of CFU. Bactericidal activity was defined as a reduction of at least 3 Log10 in the number of viable bacteria as compared to the inoculum.

[6] = system: S. aureus (clinical isolate W4); assay: MIC determination (microdilution); assay type: cell-based, Staphylococcus aureus
Procedure: as §1, §2

degradation of DIA ([2]; 0.018 M Bet6): 39% | DIA degraded ([2]; 0.018 M Carn6 solution): 91% | degradation of DIA ([2]; 0.04 M Bet6): 73% | DIA degraded ([2]; 0.04 M Carn6 solution): 98% | DIA preserved for 6 h ([2]; 0.27 M Bet6 solution (nanoaggregates)): 71% | DIA preserved for 6 h ([2]; 0.35 M Bet6 solution (nanoaggregates)): 85% | DIA not hydrolysed after 6 h ([2]; Carn6 nanoaggregates present (0.27 M)): 26% | DIA not hydrolysed after 6 h ([2]; Carn6 nanoaggregates present (0.35 M)): 34% | MIC (P. aeruginosa ATCC 27853 [3]; Pseudomonas aeruginosa, ATCC27853, planktonic cells, 24 h, 37 °C): > 50 µg/mL | solubility at 30 min ([4]; Bet6 solutions in citrate buffer, pH 5, aqueous with cosolvent or surfactant or cyclodextrin, in Bet6 solutions): 1350 µg/mL (≈ 3670 µM) | solubility at 30 min ([4]; aqueous Carn6 solutions, aqueous with cosolvent or surfactant or cyclodextrin, in Carn6 solutions): 680 µg/mL (≈ 1850 µM) | MIC ([6]; Staphylococcus aureus, planktonic cells, 24 h, 37 °C): 50 µg/mL (≈ 136 µM)
Compound: CC(=O)Oc1cccc2c1C(=O)c1c(OC(C)=O)cc(C(=O)O)cc1C2=O [DIA, diacerein]
IC50 [1]: 116 µg/mL (≈ 316 µM) | antibacterial effect (P. aeruginosa ATCC 27853 [3]; in words (discussion)): inactive | bactericidal effect (P. aeruginosa ATCC 27853 [5]): no evident bactericidal effect | antibacterial effect ([6]; in words (discussion)): exert antibacterial effects
